In the supplement of paper PMC11061612:

Key:
A172 (Glioblastoma) = assay: Bliss excess, mean over the matrix (fraction); higher = more synergy
Summary of the method: (§1)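 Cell lines in DMEM/F12 or RPMI with 10% FBS were plated in 1536-well plates, held 24 hours at 37°C, 5% CO2, then given two-drug dose matrices for 72 hours (DMSO typically 0.2%). Viability was read by CellTiter-Glo 2.0 luminescence and scaled as inhibition from 0 (vehicle wells) to 1 (blank wells). Combination Emax is the second-highest inhibition in the matrix; Bliss excess is observed combination effect minus expected EA + EB − EA·EB, EA and EB being single-agent effects.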

[1] = tested on: BICR78 (Oral Cavity Carcinoma); assay: as above
Summary of the method: as §1

[2] = tested on: D-283MED (Other Solid Carcinomas); assay: as above
Summary of the method: as §1

[3] = tested on: HCC-827 (Lung Adenocarcinoma); assay: as above
Summary of the method: as §1

Saos-2 (Osteosarcoma) [4] = assay: as above
Summary of the method: as §1

[5] = tested on: WSU-DLCL2 (B-Cell Non-Hodgkin's Lymphoma); assay: as above
Summary of the method: as §1

[6] = tested on: CAL-39 (Other Solid Carcinomas); assay: combination Emax (second highest fraction inhibited in the dose matrix, 72 h); higher = more inhibition; extreme values may be limits of the assay
Summary of the method: as §1

[7] = tested on: ETK-1 (Biliary Tract Carcinoma); assay: as above
Summary of the method: as §1

HCC38 (Breast Carcinoma) = assay: as above
Summary of the method: as §1

[8] = tested on: HOP-92 (Non-Small Cell Lung Carcinoma); assay: as above
Summary of the method: as §1

[9] = tested on: MES-SA (Other Solid Carcinomas); assay: as above
Summary of the method: as §1

MSTO-211H (Mesothelioma) = assay: as above
Summary of the method: as §1

[10] = tested on: P31-FUJ (Acute Myeloid Leukemia); assay: as above
Summary of the method: as §1

[11] = tested on: RCC10RGB (Kidney Carcinoma); assay: as above
Summary of the method: as §1

[12] = tested on: SKN-3 (Head and Neck Carcinoma); assay: as above
Summary of the method: as §1

[13] = tested on: SLVL (B-Cell Non-Hodgkin's Lymphoma); assay: as above
Summary of the method: as §1

[14] = tested on: SNU-61 (Colorectal Carcinoma); assay: as above
Summary of the method: as §1

Saos-2 (Osteosarcoma) [15] = assay: as above
Summary of the method: as §1

[16] = tested on: YT (Other Blood Carcinomas); assay: as above
Summary of the method: as §1
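Throughout, for Bliss excess, mean over the matrix: after 72 h of two-drug dosing.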

SMILES	Bliss excess (A172 (Glioblastoma))	Bliss excess [1]	Bliss excess [2]	Bliss excess [3]	Bliss excess (Saos-2 (Osteosarcoma) [4])	Bliss excess [5]	combination Emax [6]	combination Emax [7]	combination Emax (HCC38 (Breast Carcinoma))	combination Emax [8]	combination Emax [9]	combination Emax (MSTO-211H (Mesothelioma))	combination Emax [10]	combination Emax [11]	combination Emax [12]	combination Emax [13]	combination Emax [14]	combination Emax (Saos-2 (Osteosarcoma) [15])	combination Emax [16]
COc1nnc2ccc(N3CCC(c4ccc(OCCN5CCN(C)C(=O)[C@H]5C)cc4)CC3)nn12 [AZD5153] + C[C@@H]1COCCN1C2=NC(=NC(=C2)C3(CC3)[S@](=N)(=O)C)C4=C5C=CNC5=NC=C4 [AZD6738] (first compound max 1 µM, 7x7, partner max 10 µM)	-0.0059	0.0056	-0.0087	0.08	0.0391	-0.0467	0.797	0.717	0.486	0.374	0.763	0.359	0.987	0.572	0.634	0.689	0.544	0.843	0.923
Cc1nc(Nc2ncc(C(=O)Nc3c(C)cccc3Cl)s2)cc(N2CCN(CCO)CC2)n1 [Dasatinib] + CC(=O)Nc1cccc(-n2c(=O)n(C3CC3)c(=O)c3c(Nc4ccc(I)cc4F)n(C)c(=O)c(C)c32)c1 [Trametinib] (first compound max 2 µM, 7x7, partner max 1 µM)	-0.0823	-0.0401	-0.0475	-0.0114	0.0164	0.101	0.944	0.781	0.285	0.928	0.221	0.747	0.65	0.667	0.575	0.663	0.626	0.335	0.318
CS(=O)(=O)CCNCc1ccc(-c2ccc3ncnc(Nc4ccc(OCc5cccc(F)c5)c(Cl)c4)c3c2)o1 [Lapatinib] + NC1(c2ccc(-c3nc4ccn5c(=O)[nH]nc5c4cc3-c3ccccc3)cc2)CCC1 [MK-2206] (first compound max 10 µM, 7x7, partner max 10 µM)		0.0068	0.0164		-0.0026	0.0058	0.999	0.947	0.503	0.685		0.126	0.947		0.835	0.81		0.426	0.945
C=CCn1c(=O)c2cnc(Nc3ccc(N4CCN(C)CC4)cc3)nc2n1-c1cccc(C(C)(C)O)n1 [AZD1775] + C1CN(CCC1(C(=O)N[C@@H](CCO)C2=CC=C(C=C2)Cl)N)C3=NC=NC4=C3C=CN4 [Capivasertib] (first compound max 3 µM, partner max 3 µM)	-0.0099	-0.0822	-0.0189	0.0073	-0.0459	-0.0709	0.782	0.664	0.748	0.551	0.863	0.352	0.999	0.583	0.61	0.87		0.757	0.949
CN(C)CCCOc1ccc(-c2ccc3ncc4c(c3c2)n(C2CCOCC2)c(=O)n4C)cn1 [AZD0156] + O=C(c1cc(Cc2n[nH]c(=O)c3ccccc23)ccc1F)N1CCN(C(=O)C2CC2)CC1 [Olaparib] (first compound max 3 µM, partner max 3 µM)	0.0378	-0.0507	0.115	-0.0328	0.0334	0.211	0.331	0.329	0.266	0.256	0.353	0.0713	0.368	0.229	0.283	0.313		0.218	0.212
Cc1nc(-c2cn3c(n2)-c2ccc(-c4cnn(C(C)(C)C(N)=O)c4)cc2OCC3)n(C(C)C)n1 [Taselisib] + O=C(Nc1ccc2[nH]nc(-c3ccncc3)c2c1)[C@@H]1CCN(CC(=O)N2CCN(c3ccc(-c4ncccn4)cc3)CC2)C1 [SCH772984] (first compound max 10 µM, 7x7, partner max 5 µM)		-0.011	0.061		0.0665	0.0062	1		0.355			0.806	0.948			0.667		0.703	0.597
CS(=O)(=O)CCNCc1ccc(-c2ccc3ncnc(Nc4ccc(OCc5cccc(F)c5)c(Cl)c4)c3c2)o1 [Lapatinib] + Cn1cnc2c(F)c(Nc3ccc(Br)cc3Cl)c(C(=O)NOCCO)cc21 [Selumetinib] (first compound max 10 µM, 7x7, partner max 10 µM)		-0.0343	0.0163		0.0251	0.0044	1		0.214			0.337	0.521			0.432		0.289	0.725
